Data published in patent US7507581B2, “Inhibition of pancreatic islet aggregation” (Synthecon, Inc., priority 2005, dated 2009).
“Also recorded” adds a separate entry of the source.

Assays:
Assay type in all cases: cell-based
[1] = test system: caspase 3 activity in cultured human pancreatic islets; test: Caspase 3 activity (apoptosis) in cultured human pancreatic islets
Procedure: (§1) In each sample, the islets were allowed to settle at 1×g in a sterile centrifuge tube. Once the islets had settled, the supernatant was removed and replaced with 2 ml of media. Control samples of islets (Samples 2 and 4) were placed in the control media (i.e., CMRL-1066 media containing 10% bovine serum, 1% penicillin/streptomycin/amphotericin B, and 2 mM glutamine) and experimental samples of islets (Samples 3 and 5) were incubated with the control media to which 50 μg/ml IKVAV-containing peptide such as the PA22-2 (SEQ ID NO. 1) peptide had been added. The IKVAV-containing peptides are hereinafter referred to as laminin A chain peptide.
(§2) All four samples were gently mixed and placed in a humidified incubator for 3 hours at 37° C. At half hour intervals, the tubes containing the samples were gently inverted to prevent aggregation of the islet pellet.
Samples 2 and 3 were transferred to standard culture dishes (petri dishes) at a cell density of approximately 200 islets/ml. Samples 4 and 5 were transferred to 35 ml perfused RCCS bioreactor vessels at a cell density of approximately 200 islets/ml. […] After the Samples 2-5 had been cultured for 7 days, the islets were removed from the culture dish or RCCS bioreactor vessel and assessed for aggregation, apoptosis and ATP levels. […]
Fifty microliters of the lysed cell supernatant from each sample was transferred into a microplate well. […] The free rhodamine was measured by fluorescence (excitation/emission-496/520 nm). The fluorescence was quantitated using arbitrary fluorescence units derived by normalizing the rhodamine fluorescence to the quantity of DNA in the islet sample, which is directly proportional to cell number.
Experiments were performed to compare islet caspase 3 activity in islets cultured in conventional petri dishes (labeled in FIG. 3 as Dish) with islets preincubated with the laminin A chain peptide PA22-2 and cultured in an RCCS bioreactor (labeled in FIG. 3 as RCCS+ laminin). […] The data from four experiments was analyzed by a one-way ANOVA. Differences between the groups were determined by the Student-Newman Keuls test.

[2] = test system: human pancreatic islets; test: H & E stained thin sections of cultured human islets; settings: preincubated with peptide, 7 days in RCCS bioreactor; compared with petri dish control
Procedure: as §1, §2
Samples 2 and 3 were transferred to standard culture dishes (petri dishes) at a cell density of approximately 200 islets/ml. Samples 4 and 5 were transferred to 35 ml perfused RCCS bioreactor vessels at a cell density of approximately 200 islets/ml. All of the samples (Samples 2-5) were then cultured for 7 days. After the Samples 2-5 had been cultured for 7 days, the islets were removed from the culture dish or RCCS bioreactor vessel and assessed for aggregation, apoptosis and ATP levels. […]

[3] = test system: human pancreatic islets; test: Aggregation of high-density pancreatic islets in culture (RCCS bioreactor or petri dish)
Procedure: It is hypothesized that synthetic peptides containing the IKVAV peptide sequence (SEQ ID NO. 2) can inhibit the aggregation of islets cultures in the RCCS bioreactor. Experiments were performed to compare the aggregation of about 200-300 islets/ml cultured in the presence and absence of each peptide to be tested. Initial experiments added the peptide to the culture media in a small (10 ml) RCCS bioreactor vessel. It was realized that providing a large volume of culture media with sufficient concentrations of the PA22-2 peptide or another IKVAV-containing peptide component of laminin would be prohibitively expensive. Thus, the experimental protocol was altered as described below.
as §1, with “peptide. […]” for “peptide.”
(§3) Samples 2 and 3 were transferred to standard culture dishes (petri dishes) at a cell density of approximately 200 islets/ml. […] After the Samples 2-5 had been cultured for 7 days, the islets were removed from the culture dish or RCCS bioreactor vessel and assessed for aggregation, apoptosis and ATP levels.
An aliquot of islets from each sample was fixed by washing the islets two times in phosphate buffered saline (PBS) and then transferring the washed samples to a 4% paraformaldehyde solution for 2 hours to fix the islets. […] The islets were analyzed for their, degree of aggregation by digitizing ten microscopic fields and measuring the cross sectional areas of the islets within each field with the image processing program NIH Image. […]

[4] = test system: human pancreatic islets; test: ATP levels in cultured human pancreatic islets (luciferin/luciferase luminescence)
Procedure: as §1, with “peptide. […]” for “peptide.”
as §3
Islet ATP levels were measured by luciferin/luciferase luminescence. […] The cells were pelleted by centrifugation and 10 μl of the lysed cell supernatant was placed in a luminescence multiwell plate with 90 μl of reaction solution (25 mM Tricine pH 7.8, 5 mM MgSO4, 0.1 mM EDTA, 0.1 mM sodium azide with 0.5 mM lucifirin, 1 mM DTT and 12.5 μg of firefly luciferase). […]
The data from four experiments was analyzed by a one-way ANOVA. […]

CYS-SER-ARG-ALA-ARG-LYS-GLN-ALA-ALA-SER-ILE-LYS-VAL-ALA-VAL-SER-ALA-ASP-ARG (CSRARKQAASIKVAVSADR; laminin A chain) [PA22-2, 19 amino acid synthetic peptide containing residues 2091-2108 of the laminin A chain, IKVAV-containing]
caspase 3 activity ([1]; Dish+ laminin: preincubated 3 hours with 50 μg/ml peptide, 7 days petri dish, vs Dish control (100%), n=4): slightly lower caspase 3 activity but the values did not have a p value less than 0.05; also recorded: no significant effect on islet caspase 3 activity
caspase 3 activity ([1]; RCCS+ laminin (Sample 5): preincubated 3 hours with 50 μg/ml peptide, 7 days RCCS, vs RCCS-cultured islets without peptide (Sample 4)): less caspase 3 activity than the RCCS-cultured islets of Sample 4
caspase 3 activity ([1]; RCCS+ laminin: preincubated 3 hours with 50 μg/ml peptide, 7 days RCCS, vs Dish control, p<0.05, n=4): significantly less caspase 3 activity than did the dish-cultured islets
islet structure / membrane integrity (H & E thin sections) [2]: maintained their membrane integrity and appeared to be healthy and viable
aggregation inhibiting activity ([3]; peptide added to RCCS-cultured islets, cell density about 200-300 islets/ml): showed substantial aggregation inhibiting activity
adherence of islets to petri dish ([3]; peptide left in the media during the entire culture period, petri dish): caused the petri dish control islets to adhere to the non-stick petri dishes
degree of aggregation of islets ([3]; preincubated 3 hours with 50 μg/ml peptide, then seven-day culture in RCCS bioreactor, compared with no peptide): lower degree of aggregation; also recorded: sufficient to prevent aggregation of the islets in the RCCS bioreactor; also recorded: beneficial in preventing islet aggregation
ATP levels ([4]; RCCS+laminin (Sample 5): preincubated with peptide, 7 days RCCS, vs Dish control (Sample 2), p<0.05, n=4): significantly higher ATP levels
ATP levels ([4]; Sample 3: preincubated 3 hours with 50 μg/ml peptide, 7 days petri dish, vs Dish control (100%), n=4): tended to have higher ATP levels but the values did not have a p value less than 0.05
